We go through three molecules from patent US12233107B2, “GHRH or analogues thereof for use in treatment of hepatic disease” (The General Hospital Corporation, priority 2019, dated 2025).

Data set [1] deals with patients with HIV-associated NAFLD. To be noted: Ajmera et al., Hepatology 2019; cited from earlier work.
Data set [2] deals with patients with primary NAFLD. The conditions noted are these: cited from earlier work.
Data set [3] deals with HIV-infected subjects with NAFL/NASH. Also on record: species or system human. The conditions noted are these: in vivo. The protocol: The study consisted of a 12-month, double-blind treatment phase during which participants were randomized in a 1:1 ratio receive to tesamorelin 2 mg daily or identical placebo, followed by a 6-month open label phase during which all participants receive tesamorelin. The pre-specified primary analysis, comparing changes over twelve months in tesamorelin vs. placebo treatment, is reported here. Randomization was stratified by site (NIH and MGH) and vitamin E use, defined as consistent use of ≥400 international units daily. The randomization list was prepared by the study statistician using a permuted block algorithm within each stratum with randomly varying block sizes. […] IGF-1 Z-scores were monitored throughout the study by an independent endocrinologist at MGH otherwise unaffiliated with the study. […]
Laboratory analyses were conducted using standard methodologies. Clinical labs were measured at the NIH Clinical Laboratory and, for MGH, at LabCorp and Quest. IGF-1 was measured centrally at Quest Laboratories. C-reactive protein was measured using electrochemiluminescense (Meso Scale Discovery, Rockville, MD), and adiponectin was measured using ELISA (R&D Systems, Minneapolis, MN).
Per the pre-specified analysis plan, change in HFF was assessed by random intercept mixed effects modeling using restricted maximum likelihood to assess the effect estimate for the time×randomization interaction. […]

The test system is the same in data set [4]. The arrangement: species or system human. To be noted: in vivo. The protocol: Participants at MGH also underwent a euglycemic hyperinsulinemic clamp procedure to assess insulin sensitivity. After a 14-hour overnight fast, a low-dose (insulin 20 mU/m^2/min) clamp for 2 hours was followed by a high-dose (insulin 80 mU/m^2/min) clamp for 2 hours as previously described (Braun L R, et al. Effects of Pitavastatin on Insulin Sensitivity and Liver Fat: A Randomized Clinical Trial. J Clin Endocrinol Metab 2018; 103:4176-86). Insulin stimulated glucose disposal (M) were calculated during the last 20 minutes of low-dose and high-dose clamp using the DeFronzo method (DeFronzo R A, Tobin J D, Andres R. Am J Physiol 1979; 237:E214-23) as the primary indices of hepatic and whole-body insulin sensitivity, respectively.
The source holds these as a separate data set.

The test system is the same in data set [5]. The conditions noted are these: in vivo.
Data set [6] concerns NASH in the general population. The conditions noted are these: cited from earlier work.

As to `CCCCCCCCCCCCCCCCCCCC(=O)N[C@H]1CC[C@@]2(C)[C@@H](C1)C[C@@H](O)[C@@H]1[C@@H]2C[C@H](O)[C@]2(C)[C@@H]([C@H](C)CCC(=O)O)CC[C@@H]12` [aramchol], the “effect in patients with HIV-associated NAFLD” value in data set [1] is given as “no significant effect”. Further, the hepatic-fat content entry in data set [2] is “reduce”.

Turning to `CC/C=C/CC(=O)N[C@@H](Cc1ccc(O)cc1)C(=O)N[C@@H](C)C(=O)N[C@@H](CC(=O)O)C(=O)N[C@@H](C)C(=O)N[C@H](C(=O)N[C@@H](Cc1ccccc1)C(=O)N[C@H](C(=O)N[C@@H](CC(N)=O)C(=O)N[C@@H](CO)C(=O)N[C@@H](Cc1ccc(O)cc1)C(=O)N[C@@H](CCCNC(=N)N)C(=O)N[C@@H](CCCCN)C(=O)N[C@H](C(=O)N[C@@H](CC(C)C)C(=O)NCC(=O)N[C@@H](CCC(N)=O)C(=O)N[C@@H](CC(C)C)C(=O)N[C@@H](CO)C(=O)N[C@@H](C)C(=O)N[C@@H](CCCNC(=N)N)C(=O)N[C@@H](CCCCN)C(=O)N[C@@H](CC(C)C)C(=O)N[C@@H](CC(C)C)C(=O)N[C@@H](CCC(N)=O)C(=O)N[C@@H](CC(=O)O)C(=O)N[C@H](C(=O)N[C@@H](CCSC)C(=O)N[C@@H](CO)C(=O)N[C@@H](CCCNC(=N)N)C(=O)N[C@@H](CCC(N)=O)C(=O)N[C@@H](CCC(N)=O)C(=O)NCC(=O)N[C@@H](CCC(=O)O)C(=O)N[C@@H](CO)C(=O)N[C@@H](CC(N)=O)C(=O)N[C@@H](CCC(N)=O)C(=O)N[C@@H](CCC(=O)O)C(=O)N[C@@H](CCCNC(=N)N)C(=O)NCC(=O)N[C@@H](C)C(=O)N[C@@H](CCCNC(=N)N)C(=O)N[C@@H](C)C(=O)N[C@@H](CCCNC(=N)N)C(=O)N[C@@H](CC(C)C)C(N)=O)[C@@H](C)CC)C(C)C)[C@@H](C)O)[C@@H](C)CC` [Tesamorelin, trans-3-hexenoyl-GHRH(1-44)-NH2], in data set [3], the fasting glucose entry is on record as “did not significantly affect” and the “hemoglobin A1c” value is listed as “did not significantly affect”. Moreover, in data set [4], the “treatment effect for high-dose M (insulin stimulated glucose uptake, high-dose clamp)” value was −0.9 and the “treatment effect for low-dose M (glucose infusion rate, low-dose clamp)” value is recorded as 0.0 mg/kg/min. Further, in data set [5], the Any adverse event is on record as 29, the Arthralgia stood at 3, the Hyperglycemia is 12 and the Injection site bruising came out at 11. Besides, in data set [5], the Injection site erythema came out at 3, the Injection site stinging was 4, the Myalgia turned out to be 2 and the Other adverse events is listed as 25. For the same molecule, in data set [5], the Other infection is listed as 7, the “Other injection site complaints” value came out at 10, the Paresthesia is recorded as 2 and the URI was found to be 5. Besides, in data set [5], the discontinuations for hyperglycemia result is recorded as “two” and the “relation of serious adverse events to study drug” value is reported as “None were judged as related to study drug”.

In the case of Vitamin E, the “histological features of NASH” value in data set [6] is on record as “improve”.
